# Measured values from patent US9719981B2, “RAC1 inhibitors for the treatment of alport glomerular disease” (Father Flanagan's Boys' Home, priority 2012, dated 2017).
# Experiments:
# [1] = system: FAK; assay: pFAK397 western blot in cultured podocytes -/+ TAE226; format: cell-based, mouse; details: 20 μM TAE226, podocytes on placental laminin
# Protocol: Basal Lamina and −/+ TAE226 pFAK^397 Western Blots. 10 day differentiated GEC's were cultured in 0.5% FCS for 2 days and plated onto tissue culture dishes previously coated with 50 μg/ml Collagen Type 1 Rat Tail (BD Biosciences) and 2 μg/cm^2 Placental Laminin (Sigma) in 0.1% BSA containing media. For Basal Lamina experiment, additional dishes were coated with Collagen Type 1 and 1.25 μg/cm^2 EHS Laminin (BD Biosciences) or […] Merosin (Chemicon, Temecula Calif.). For −/+ TAE266 experiment, 20 μM TAE226 was included in the media. Protein was collected 15 hours later in M-PER (Thermo Scientific) as above and Western Blot run as described below.
# Immunoblotting. Ten to fifteen micrograms, of cellular protein, was resolved in a 10% SDS-PAGE and then electrotransfered to PVDF membrane. The membranes were cut in half and the upper half (250 kDa to 75 kDa) used for pFAK/tFAK immunoblotting while the bottom half used for β-actin immunoblotting (loading control). Conditions for pFAK detection: the membrane was blocked in milk blocking solution (5% milk containing 0.2% Tween-20 in PBS) for 1 hour at room temperature with constant shaking and incubated overnight at 4° C. with anti-pFAK 1:1,000 in BSA blocking solution (1% BSA containing 0.2% Tween-20 in PBS). […]
# [2] = system: cultured podocytes; assay: Real time qRT-PCR for MMP transcripts in cultured podocytes, static and stretched; format: cell-based, mouse; details: relative to untreated cells
# Protocol: NF-κB Staining and −/+ Stretch pFAK397 Western Blot. GEC's were differentiated under “non-permissive” conditions for ten days, plated onto Bioflex 6-well plates (Flexcell International, Hillsborough, N.C.) coated with Collagen Type 1 (rat tail, BD Biosciences, Bedford, Mass.)/Placental Laminin (Sigma), cultured for two days in 0.5% FCS and exposed to mechanical strain for 4 hours, as previously described (Meehan et al., 2009, Kidney Int; 76: 968-976). For NF-κB Staining, cells were fixed with 2% PFA, 4% Sucrose in PBS for 10 minutes, permeabilized with 0.3% Triton, as previously described (Rao et al., 2006, Am J Pathol; 169: 32-46) incubated with αNF-κB P65 antibody at 1:50 overnight at 4° C., incubated with anti-rabbit secondary antibody at 1:750 for two hours at room temperature, gaskets were cut out, mounted on slides with […]™ (Vector Laboratories, Burlingame, Calif.) and cover slipped. For −/+ Stretch pFAK Western, protein was collected in M-PER (Thermo Scientific) as above and Western Blot run as described below.
# NF-κB SN50, Inhibitor Peptide Treatment, GEC's were cultured as described above, 10 μM NF-κB SN50 Inhibitor Peptide (EMD Millipore, Billerica, Mass.) was added (and after one additional hour) exposed to 20 hours of mechanical strain and RNA collected as previously described (Meehan et al., 2009, Kidney Int; 76: 968-976).
# Real time qRT-PCR. Total RNA was reverse transcribed using […]® III (Invitrogen, Life Technologies, Grand Island, N.Y.) with Oligo(dT)20 Primer (Invitrogen). The real time PCR was carried out using TAQMAN® Gene Expression Master Mix (Applied Biosystems, Life Technologies, Grand Island, N.Y.), and quantified using STEPONEPLUS™ Real-Time PCR System (Applied Biosystems). Samples were normalized to Mouse GAPDH Endogenous Control VIC® Probe (Applied Biosystems catalogue #4352339E) which was run alongside MMP-9 (Catalog #4331182, ID# Mm00442991_m1), MMP-10 (Catalog #4331182, ID# Mm00444630_m1), MMP-12 (Catalog #4331182, ID# Mm00500554_m1), IL-6 (Catalog #4331182, ID# Mm00446190_m1), NFKbia (Catalog #4331182, ID# Mm00477798_m1), and FAK (Catalog #4331182, ID# Mm00433209_m1) TAQMAN® Gene Expression Assay Probes (Applied Biosystems). Samples were run in triplicate with a final reaction volume of 20 ul with the following cycling parameters: 50° C. for 2 min, 95° C. for 10 min, followed by 40 cycles of a two-step PCR consisting of 95° C. for 15 s and 60° C. for 1 min. Relative changes in gene expression were determined by calculating the fold change using the comparative CT method of 2^−ΔΔCT. Data are expressed as the mean with standard deviation for at least four independent RNA samples per data point.
# [3] = system: glomerular injury; details: lipopolysaccharide or anti-GBM antibody administration; cited from earlier work
structure (smiles),measurement,setting,value
CNC(=O)c1ccccc1Nc1nc(Nc2ccc(N3CCOCC3)cc2OC)ncc1Cl [TAE226],Activation state of FAK (pFAK397) in cultured podocytes,[1],reduced
same,MMP-10 message levels in stretched podocytes,[2]; biomechanical stretch,reduced
same,MMP-12 message levels in stretched podocytes,[2]; biomechanical stretch,reduced
same,MMP-10 expression in podocytes,[2]; static conditions,reduced expression
same,MMP-12 expression in podocytes,[2]; static conditions,reduced expression
same,Protection against glomerular injury,[3],protect against glomerular injury
